The source of these data is the OligoGym collection.

The target in the data set is ATXN2. Nature of the data set: mouse, dose not given. To be noted: ASO.

HELM strings list units from the 5' end as sugar, base in round brackets, then linkage (d deoxyribose, r ribose, m 2'-O-methyl, p phosphodiester). Strings are as the collection lists them; they lack the last nucleoside at the 3' end of the tested compound. [moe] = 2'-O-(2-methoxyethyl) (MOE); [sp] = phosphorothioate linkage; [m5C] = 5-methylcytosine

The substance “RNA1{[moe]([m5C])[sp].[moe](T)p.[moe](G)p.[moe](T)p.[moe](A)p.d([m5C])[sp].d(T)[sp].d(T)[sp].d(T)[sp].d(T)[sp].d([m5C])[sp].d(T)[sp].d([m5C])[sp].d(A)[sp].d(T)[sp].[moe](G)p.[moe](T)p.[moe](G)[sp].[moe]([m5C])}$$$$ (last 3' nucleoside missing)” had a 3 h FOB score of 1.25 score 0-7.

“RNA1{[moe](T)[sp].[moe]([m5C])p.[moe](T)p.[moe](G)p.d(T)[sp].d(A)[sp].d([m5C])[sp].d(T)[sp].d(T)[sp].d(T)[sp].d(T)[sp].d([m5C])[sp].d(T)[sp].d([m5C])[sp].[moe](A)p.[moe](T)p.[moe](G)p.[moe](T)[sp].[moe](G)}$$$$ (last 3' nucleoside missing)” yielded a 3 h FOB score of 0 score 0-7. The value for “RNA1{[moe](T)[sp].[moe](A)p.[moe]([m5C])p.[moe](G)p.[moe]([m5C])p.d(G)[sp].d(G)[sp].d(T)[sp].d(G)[sp].d(A)[sp].d(A)[sp].d(T)[sp].d(T)[sp].d([m5C])[sp].d(T)[sp].[moe](G)p.[moe](T)p.[moe]([m5C])[sp].[moe](T)}$$$$ (last 3' nucleoside missing)” was 0 score 0-7; that for “RNA1{[moe](G)[sp].[moe]([m5C])p.[moe](T)p.[moe](A)p.[moe](A)[sp].d([m5C])[sp].d(T)[sp].d(G)[sp].d(G)[sp].d(T)[sp].d(T)[sp].d(T)[sp].d(G)[sp].[moe]([m5C])p.[moe]([m5C])p.[moe]([m5C])[sp].[moe](T)}$$$$ (last 3' nucleoside missing)” was 6.5 score 0-7; that for “RNA1{[moe]([m5C])[sp].[moe](T)p.[moe](T)p.[moe](A)p.[moe](G)p.d(A)[sp].d(G)[sp].d(T)[sp].d(T)[sp].d(T)[sp].d(T)[sp].d(T)[sp].d(G)[sp].d([m5C])[sp].d([m5C])[sp].[moe](T)p.[moe](T)p.[moe]([m5C])[sp].[moe]([m5C])}$$$$ (last 3' nucleoside missing)” was 4 score 0-7. Regarding “RNA1{[moe](G)[sp].[moe](G)p.[moe](T)p.[moe]([m5C])p.[moe](A)p.d(A)[sp].d(G)[sp].d(G)[sp].d(T)[sp].d([m5C])[sp].d(A)[sp].d(A)[sp].d(T)[sp].d(A)[sp].d([m5C])[sp].[moe](T)p.[moe](T)p.[moe](T)[sp].[moe](T)}$$$$ (last 3' nucleoside missing)”, the 3 h FOB score came to 2 score 0-7. On to “RNA1{[moe]([m5C])[sp].[moe]([m5C])p.[moe](A)p.[moe](G)p.[moe](A)p.d(A)[sp].d(A)[sp].d(T)[sp].d([m5C])[sp].d(T)[sp].d(G)[sp].d(T)[sp].d(A)[sp].d(A)[sp].d(A)[sp].[moe](T)p.[moe](T)p.[moe]([m5C])[sp].[moe](T)}$$$$ (last 3' nucleoside missing)”, for which the 3 h FOB score is 3 score 0-7. The value for “RNA1{[moe](T)[sp].[moe](G)p.[moe](A)p.[moe](T)p.[moe]([m5C])p.d(T)[sp].d(T)[sp].d(G)[sp].d(T)[sp].d(G)[sp].d(T)[sp].d(A)[sp].d(T)[sp].d(A)[sp].d(T)[sp].[moe](A)p.[moe](T)p.[moe](T)[sp].[moe](A)}$$$$ (last 3' nucleoside missing)” was 6 score 0-7; that for “RNA1{[moe](A)[sp].[moe](G)p.[moe]([m5C])p.[moe](A)p.[moe](T)p.d(G)[sp].d(A)[sp].d(T)[sp].d([m5C])[sp].d(T)[sp].d(T)[sp].d(G)[sp].d(T)[sp].d(G)[sp].d(T)[sp].[moe](A)p.[moe](T)p.[moe](A)[sp].[moe](T)}$$$$ (last 3' nucleoside missing)” was 3 score 0-7; that for “RNA1{[moe](A)[sp].[moe](T)p.[moe]([m5C])p.[moe](A)p.[moe](A)p.d([m5C])[sp].d(T)[sp].d([m5C])[sp].d([m5C])[sp].d(A)[sp].d(A)[sp].d(A)[sp].d(G)[sp].d(G)[sp].d(T)[sp].[moe](A)p.[moe](G)p.[moe]([m5C])[sp].[moe](A)}$$$$ (last 3' nucleoside missing)” was 6 score 0-7. Take “RNA1{[moe]([m5C])[sp].[moe]([m5C])[sp].[moe]([m5C])[sp].[moe](A)[sp].[moe](A)[sp].d(A)[sp].d(G)[sp].d(G)[sp].d(G)[sp].d(T)[sp].d(T)[sp].d(A)[sp].d(A)[sp].d(T)[sp].d(T)[sp].[moe](A)[sp].[moe](G)[sp].[moe](G)[sp].[moe](A)}$$$$ (last 3' nucleoside missing)”: the 3 h FOB score is 7 score 0-7.

Take “RNA1{[moe](T)[sp].[moe](T)p.[moe](G)p.[moe](A)p.[moe](A)p.d(T)[sp].d(T)[sp].d(A)[sp].d([m5C])[sp].d(A)[sp].d(A)[sp].d(T)[sp].d(G)[sp].d([m5C])[sp].d(G)[sp].[moe](G)p.[moe](T)p.[moe](A)[sp].[moe](T)}$$$$ (last 3' nucleoside missing)”: the 3 h FOB score came out at 4 score 0-7.

Take “RNA1{[moe]([m5C])[sp].[moe]([m5C])p.[moe](A)p.[moe](T)p.[moe](A)p.d(A)[sp].d(T)[sp].d([m5C])[sp].d(T)[sp].d([m5C])[sp].d(A)[sp].d(T)[sp].d(T)[sp].d([m5C])[sp].d(T)[sp].[moe]([m5C])p.[moe](A)p.[moe](T)[sp].[moe](A)}$$$$ (last 3' nucleoside missing)”: the 3 h FOB score was found to be 2.25 score 0-7. On to “RNA1{[moe](A)[sp].[moe](G)p.[moe](T)p.[moe]([m5C])p.[moe](A)p.d(T)[sp].d(G)[sp].d([m5C])[sp].d(T)[sp].d(T)[sp].d(A)[sp].d(T)[sp].d(A)[sp].d(A)[sp].d(A)[sp].[moe](G)p.[moe](T)p.[moe]([m5C])[sp].[moe]([m5C])}$$$$ (last 3' nucleoside missing)”, for which the 3 h FOB score stood at 3.5 score 0-7. The value for “RNA1{[moe](A)[sp].[moe](T)p.[moe](A)p.[moe]([m5C])p.[moe](G)p.d([m5C])[sp].d(G)[sp].d(G)[sp].d(T)[sp].d(G)[sp].d(A)[sp].d(A)[sp].d(T)[sp].d(T)[sp].d([m5C])[sp].[moe](T)p.[moe](G)p.[moe](T)[sp].[moe]([m5C])}$$$$ (last 3' nucleoside missing)” was 1 score 0-7. The value for “RNA1{[moe]([m5C])[sp].[moe](T)p.[moe](T)p.[moe](A)p.[moe](G)[sp].d(A)[sp].d(G)[sp].d(T)[sp].d(T)[sp].d(T)[sp].d(T)[sp].d(T)[sp].d(G)[sp].[moe]([m5C])p.[moe]([m5C])p.[moe](T)[sp].[moe](T)}$$$$ (last 3' nucleoside missing)” was 6 score 0-7. “RNA1{[moe](G)[sp].[moe](G)p.[moe](A)p.[moe]([m5C])p.[moe](A)p.d(A)[sp].d(G)[sp].d(A)[sp].d(A)[sp].d(A)[sp].d(T)[sp].d(T)[sp].d(T)[sp].d(T)[sp].d([m5C])[sp].[moe](A)p.[moe](G)p.[moe](T)[sp].[moe](T)}$$$$ (last 3' nucleoside missing)” came in with a 3 h FOB score of 4.5 score 0-7. For “RNA1{[moe]([m5C])[sp].[moe](G)p.[moe](T)p.[moe](A)p.[moe](T)[sp].d(G)[sp].d(T)[sp].d(T)[sp].d(T)[sp].d(G)[sp].d(T)[sp].d([m5C])[sp].d(T)[sp].[moe](G)p.[moe](T)p.[moe]([m5C])[sp].[moe](T)}$$$$ (last 3' nucleoside missing)”, the 3 h FOB score came to 6 score 0-7. The substance “RNA1{[moe](T)[sp].[moe](T)p.[moe](A)p.[moe](A)p.[moe]([m5C])p.d(T)[sp].d(G)[sp].d(T)[sp].d(G)[sp].d(T)[sp].d(T)[sp].d(A)[sp].d(G)[sp].d(A)[sp].d(A)[sp].[moe](T)p.[moe](G)p.[moe]([m5C])[sp].[moe](T)}$$$$ (last 3' nucleoside missing)” registered a 3 h FOB score of 5.5 score 0-7. The value for “RNA1{[moe](T)[sp].[moe](T)p.[moe](A)p.[moe]([m5C])p.[moe](T)[sp].d(G)[sp].d(T)[sp].d(T)[sp].d(T)[sp].d([m5C])[sp].d(G)[sp].d(A)[sp].d([m5C])[sp].[moe]([m5C])p.[moe](T)p.[moe]([m5C])[sp].[moe](T)}$$$$ (last 3' nucleoside missing)” was 6 score 0-7; that for “RNA1{[moe]([m5C])[sp].[moe](T)p.[moe](T)p.[moe](G)p.[moe](T)p.d(A)[sp].d([m5C])[sp].d(T)[sp].d(T)[sp].d([m5C])[sp].d(A)[sp].d([m5C])[sp].d(A)[sp].d(T)[sp].d(T)[sp].[moe](T)p.[moe](G)p.[moe](G)[sp].[moe](A)}$$$$ (last 3' nucleoside missing)” was 2.25 score 0-7.

On to “RNA1{[moe]([m5C])[sp].[moe](T)p.[moe](T)p.[moe](T)p.[moe](T)p.d([m5C])[sp].d(T)[sp].d([m5C])[sp].d(A)[sp].d(T)[sp].d(G)[sp].d(T)[sp].d(G)[sp].d([m5C])[sp].d(G)[sp].[moe](G)p.[moe]([m5C])p.[moe](A)[sp].[moe](T)}$$$$ (last 3' nucleoside missing)”, for which the 3 h FOB score was found to be 6.25 score 0-7. The substance “RNA1{[moe](T)[sp].[moe](T)p.[moe](A)p.[moe](G)p.[moe]([m5C])p.d(T)[sp].d([m5C])[sp].d(A)[sp].d(T)[sp].d([m5C])[sp].d(A)[sp].d(A)[sp].d(G)[sp].d(G)[sp].d(T)[sp].[moe](A)p.[moe]([m5C])p.[moe]([m5C])[sp].[moe](A)}$$$$ (last 3' nucleoside missing)” displayed a 3 h FOB score of 3.75 score 0-7. With “RNA1{[moe](T)[sp].[moe](T)p.[moe](A)p.[moe](G)p.[moe](A)p.d(G)[sp].d(T)[sp].d(T)[sp].d(T)[sp].d(T)[sp].d(T)[sp].d(G)[sp].d([m5C])[sp].d([m5C])[sp].d(T)[sp].[moe](T)p.[moe]([m5C])p.[moe]([m5C])[sp].[moe](A)}$$$$ (last 3' nucleoside missing)” the figure was 3.5 score 0-7. With “RNA1{[moe](A)[sp].[moe]([m5C])p.[moe](A)p.[moe]([m5C])p.[moe](A)p.[moe](G)p.d(T)[sp].d(T)[sp].d(T)[sp].d([m5C])[sp].d(A)[sp].d([m5C])[sp].d(T)[sp].d(A)[sp].d(G)[sp].d(G)[sp].[moe](T)p.[moe](T)[sp].[moe]([m5C])}$$$$ (last 3' nucleoside missing)” the figure was 1 score 0-7. Regarding “RNA1{[moe]([m5C])[sp].[moe]([m5C])p.[moe](T)p.[moe](A)p.d(T)[sp].d([m5C])[sp].d(A)[sp].d(T)[sp].d([m5C])[sp].d(A)[sp].d(T)[sp].d(T)[sp].d(T)[sp].d(T)[sp].[moe]([m5C])p.[moe]([m5C])p.[moe](A)p.[moe](G)[sp].[moe](G)}$$$$ (last 3' nucleoside missing)”, the 3 h FOB score was determined as 1.75 score 0-7.
